B1: methionine aminopeptidase 2 (LdMAP2) (Leishmania donovani) (protein)
chain: MPPKMSAKNKQQPKQQGGNKKGKGSSQDGDDFDAMLAAAVNASKADAAKNHSNNHQGKRSSNGNGTAPASRSLAADEPVVPSSADHPENPYPKTADGYPRQTWPEPTVLVSKQFAPGQFPAGEIVDHPGEMNNFRRSSEEKRALARASEQQVQEMREAAEVHRQVRTWAQSWIKPGLSLMLMTDRIEKKLNELIGKDGILRGQAFPTGCSLNHVAAHYTPNTGDEKVVLAYDDVMKVDFGTHINGRIIDCAWTVAFNPMFDPLLQAVKEATYEGIKQAGIDVRLGDIGAAIEEVMESHEVEINGKVHQVKSIRNLSGHNIAPYIIHSGKSVPIVKGGEQTKMEEGEVFAIETFGSTGRGFVNEDLECSHYMMRPGAEVMQLRSEKAQQLLKHIHKSYSTLAFCRKWLDRDGFDRHLMNLNRLVDEGAVNKYPPLVDVKGSYTAQYEHTIYLGPTAKEILSKGSDY

Key:
[1] = target: T1, methionine aminopeptidase 2 (LdMAP2) (Leishmania donovani, UniProt A0A3S7WWI2); test: fluorogenic Met-AMC hydrolysis assay, Lineweaver-Burk plot, single inhibitor concentration ([…]); format: biochemical
T1 construct: gene LdCL_210014600

[2] = substrate: CSCC[C@H](N)C(=O)Nc1ccc2c(C)cc(=O)oc2c1; test: purified protein; conditions: divalent metal ion ([…] NiSO4 in assay)

| Molecule | Ki [1] | Km [2] |
| --- | --- | --- |
| CO[C@@H]1[C@H](OC(=O)NC(=O)CCl)CC[C@]2(CO2)[C@H]1[C@@]1(C)O[C@@H]1CC=C(C)C [TNP-470, 5-methoxy-4-(2-methyl-3-(3-methyl-2-butenyl)oxiranyl)-1-oxaspiro(2,5)oct-6-yl (chloroacetyl) carbamate] | 13.5 nM |  |
| B1 |  | 200 µM |
